From PMC8119466, “A screen of FDA-approved drugs identifies inhibitors of protein tyrosine phosphatase 4A3 (PTP4A3 or PRL-3)” (Scientific Reports, 2021)
Structures can show the parent of a compound that is named as a salt. Where two headings read alike, the source gives them in different places.

Assays:
Assay type in all cases: biochemical
recombinant PRL-1 = target: T1, recombinant PRL-1 (Homo sapiens, UniProt Q93096); test: In vitro phosphatase assay (DiFMUP hydrolysis), PRL-1; note: test concentration or dose not given here
T1 construct: 6xHis (N, cleaved yes); made in house; host or cells: E. coli One Shot BL21 Star
T1 sequence (Q93096 1-173): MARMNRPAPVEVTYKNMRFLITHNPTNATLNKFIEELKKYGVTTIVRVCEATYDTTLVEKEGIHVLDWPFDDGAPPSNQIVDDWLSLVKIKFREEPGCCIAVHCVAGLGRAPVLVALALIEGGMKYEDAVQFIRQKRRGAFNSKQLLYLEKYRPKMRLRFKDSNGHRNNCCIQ

recombinant PRL-2 = target: T2, recombinant PRL-2 (Homo sapiens, UniProt Q12974); test: In vitro phosphatase assay (DiFMUP hydrolysis), PRL-2;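 note: PRL-2 activity read as DiFMUP hydrolysis after 20 min at room temperature with drug, enzyme first pre-reduced at 4 °C for 20 min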
T2 construct: 6xHis (N, cleaved yes); made in house; host or cells: E. coli One Shot BL21 Star
T2 sequence (Q12974 1-167): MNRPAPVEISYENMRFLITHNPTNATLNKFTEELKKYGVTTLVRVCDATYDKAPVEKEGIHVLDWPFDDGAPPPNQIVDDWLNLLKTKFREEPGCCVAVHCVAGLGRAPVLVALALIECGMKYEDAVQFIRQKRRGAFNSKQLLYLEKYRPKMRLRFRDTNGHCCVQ

recombinant PRL-3 = target: T3, recombinant PRL-3 (Homo sapiens, UniProt O75365); test: In vitro phosphatase assay (DiFMUP hydrolysis), PRL-3; note: test concentration or dose not given here
T3 construct: 6xHis (N, cleaved yes); made in house; host or cells: E. coli One Shot BL21 Star
T3 sequence (O75365 whole entry): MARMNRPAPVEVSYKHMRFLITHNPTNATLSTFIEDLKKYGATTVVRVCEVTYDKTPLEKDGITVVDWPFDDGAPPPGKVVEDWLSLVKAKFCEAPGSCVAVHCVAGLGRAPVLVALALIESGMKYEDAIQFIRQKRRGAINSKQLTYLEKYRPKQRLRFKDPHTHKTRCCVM

[1] = FDA-approved drug screen, compared to DMSO

Compound | % Phosphatase Activity (compared to DMSO) PRL-1 (recombinant PRL-1; [1]) [%] | % Phosphatase Activity (compared to DMSO) PRL-2 (recombinant PRL-2; [1]) [%] | % Phosphatase Activity (compared to DMSO) PRL-3 (recombinant PRL-3; [1]) [%] | % Phosphatase Activity (compared to DMSO) PRL-1 (recombinant PRL-1) [%] | % Phosphatase Activity (compared to DMSO) PRL-2 (recombinant PRL-2) [%] | % Phosphatase Activity (compared to DMSO) PRL-3 (recombinant PRL-3) [%]
CN(C)CC(c1ccc(O)cc1)C1(O)CCCCC1 (stereo not drawn) [Desvenlafaxine] | 95 | 105 | 70 |  |  | 
Cc1cccc(Cc2c[nH]cn2)c1C [Detomidine HCl] | 88 | 107 | 81 |  |  | 
C[C@@H]1C[C@H]2[C@@H]3CCC4=CC(=O)C=C[C@]4(C)[C@@]3(F)[C@@H](O)C[C@]2(C)[C@@]1(O)C(=O)CO [Dexamethasone (DHAP)] | 99 | 94 | 66 |  |  | 
CC(=O)OCC(=O)[C@@]1(O)[C@H](C)C[C@H]2[C@@H]3CCC4=CC(=O)C=C[C@]4(C)[C@@]3(F)[C@@H](O)C[C@@]21C [Dexamethasone Acetate] | 90 | 93 | 86 |  |  | 
Cc1c(OCC(F)(F)F)ccnc1C[S@@+]([O-])c1nc2ccccc2[nH]1 [Dexlansoprazole] | 95 | 100 | 93 |  |  | 
Cc1cccc([C@H](C)c2c[nH]cn2)c1C.Cl [Dexmedetomidine HCl (Precedex)] |  |  |  | 111 | 120 | 90
Cc1cccc([C@H](C)c2cnc[nH]2)c1C [Dexmedetomidine] |  |  |  | 98 | 113 | 94
C[C@@H](CN1CC(=O)NC(=O)C1)N1CC(=O)NC(=O)C1.Cl [Dexrazoxane HCl (ICRF-187, ADR-529)] | 97 | 92 | 79 |  |  | 
Br.COc1ccc2c(c1)[C@]13CCCC[C@@H]1[C@H](C2)N(C)CC3.O [Dextromethorphan (hydrobromide hydrate)] | 104 | 118 | 92 |  |  | 
OC[C@H]1OC(O)[C@H](O)[C@@H](O)[C@@H]1O (stereo partly drawn) [Dextrose] | 106 | 113 | 79 |  |  | 
CC(=O)Oc1cccc2c1C(=O)c1c(OC(C)=O)cc(C(=O)O)cc1C2=O [Diacerein] | 32 | 51 | 31 |  |  | 
CC1=NS(=O)(=O)c2cc(Cl)ccc2N1 [Diazoxide] | 99 | 94 | 89 |  |  | 
CCCCOc1cc(C(=O)NCCN(CC)CC)c2ccccc2n1 [Dibucaine HCl] | 110 | 108 | 101 |  |  | 
N#CC(c1ccc(Cl)cc1)c1c(Cl)cc(-n2ncc(=O)[nH]c2=O)cc1Cl (stereo not drawn) [Diclazuril] | 79 | 112 | 80 |  |  | 
O=C(O)Cc1ccccc1Nc1c(Cl)cccc1Cl [Diclofenac Diethylamine] | 119 | 140 | 97 |  |  | 
O=C([O-])Cc1ccccc1Nc1c(Cl)cccc1Cl.[K+] [Diclofenac Potassium] | 115 | 132 | 99 |  |  | 
O=C(O)Cc1ccccc1Nc1c(Cl)cccc1Cl [Diclofenac Sodium] | 100 | 115 | 92 |  |  | 

Compound | % Phosphatase Activity (compared to DMSO) PRL-1 (recombinant PRL-1; [1]) [%] | % Phosphatase Activity (compared to DMSO) PRL-2 (recombinant PRL-2; [1]) [%] | % Phosphatase Activity (compared to DMSO) PRL-3 (recombinant PRL-3; [1]) [%] | % Phosphatase Activity (compared to DMSO) PRL-1 (recombinant PRL-1) [%] | % Phosphatase Activity (compared to DMSO) PRL-2 (recombinant PRL-2) [%] | % Phosphatase Activity (compared to DMSO) PRL-3 (recombinant PRL-3) [%]
Cc1onc(-c2c(Cl)cccc2Cl)c1C(=O)N[C@@H]1C(=O)N2[C@@H]1SC(C)(C)[C@@H]2C(=O)O [Dicloxacillin Sodium] | 106 | 121 | 85 |  |  | 
O=c1[nH]cnc2c1ncn2[C@H]1CC[C@@H](CO)O1 [Didanosine] | 95 | 114 | 85 |  |  | 
C[C@]12CCC3=C4CCC(=O)C=C4CC[C@H]3[C@@H]1CC[C@@]2(O)CC#N [Dienogest] | 100 | 78 | 72 |  |  | 
CCN(CC)C(=O)N1CCN(C)CC1.O=C(O)CC(O)(CC(=O)O)C(=O)O [Diethylcarbamazine (citrate)] | 92 | 101 | 90 |  |  | 
CC/C(=C(/CC)c1ccc(O)cc1)c1ccc(O)cc1 [Diethylstilbestrol] | 86 | 97 | 92 |  |  | 
CN1CCN(c2cc3c(cc2F)c(=O)c(C(=O)O)cn3-c2ccc(F)cc2)CC1 [Difloxacin HCl] | 99 | 102 | 114 |  |  | 
O=C(O)c1cc(-c2ccc(F)cc2F)ccc1O [Diflunisal] | 91 | 87 | 85 |  |  | 
CCCC(=O)O[C@]1(C(=O)COC(C)=O)CC[C@H]2[C@@H]3C[C@H](F)C4=CC(=O)C=C[C@]4(C)[C@@]3(F)[C@@H](O)C[C@@]21C [Difluprednate] | 82 | 76 | 67 |  |  | 
C[C@H]1O[C@@H](O[C@H]2[C@@H](O)C[C@H](O[C@H]3[C@@H](O)C[C@H](O[C@H]4CC[C@@]5(C)[C@H](CC[C@@H]6[C@@H]5C[C@@H](O)[C@]5(C)[C@@H](C7=CC(=O)OC7)CC[C@]65O)C4)O[C@@H]3C)O[C@@H]2C)C[C@H](O)[C@@H]1O [Digoxin] | 102 | 95 | 76 |  |  | 
CN[C@@H]1[C@H](O[C@H]2[C@H](O[C@H]3[C@H](O)[C@@H](O)[C@H](NC(=N)N)[C@@H](O)[C@@H]3NC(=N)N)O[C@@H](C)[C@]2(O)CO)O[C@@H](CO)[C@H](O)[C@H]1O [Dihydrostreptomycin sulfate] | 89 | 90 | 110 |  |  | 
Oc1c(I)cc(I)c2cccnc12 [Diiodohydroxyquinoline] | 89 | 108 | 81 |  |  | 
COc1ccc([C@@H]2Sc3ccccc3N(CCN(C)C)C(=O)[C@@H]2OC(C)=O)cc1 [Diltiazem HCl] | 94 | 111 | 124 |  |  | 
O=S(=O)([O-])CCSSCCS(=O)(=O)[O-].[Na+].[Na+] [Dimesna] | 99 | 99 | 79 |  |  | 
COC(=O)/C=C/C(=O)OC [Dimethyl Fumarate] | 106 | 115 | 83 |  |  | 
CCc1cnn2c(NCc3ccc[n+]([O-])c3)cc(N3CCCC[C@H]3CCO)nc12 [Dinaciclib (SCH727965)] |  |  |  | 87 | 89 | 87
Cc1c(C(N)=O)cc([N+](=O)[O-])cc1[N+](=O)[O-] [Dinitolmide] | 107 | 117 | 90 |  |  | 
